Results taken from patent US20240150423A1, “GLP-1 ANALOGUE-MODIFIED DIMERS WITH DIFFERENT CONFIGURATIONS, PREPARATION METHOD THEREOF, AND APPLICATION THEREOF IN TREATMENT OF TYPE II DIABETES” (Nanjing Finepeptide Biopharmaceutical Co.,Ltd, priority 2019, published 2024).
Values joined by “and” are separate entries in the source; they are usually repeats but may differ in a detail not shown here. Equal values may be shown once. Read-outs that look alike come from different tables or passages of the source.

Key:
Normal Kunming (KM) mice [1] = assay: multiple OGTT (mOGTT): hypoglycemic duration after a single administration; type: in vivo; conditions: single injection at the same dose (1.126 nmol), subcutaneous
Procedure, shortened: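 Normal Kunming mice given a single dose, then oral glucose challenges; tail-blood glucose read by meter at 0, 10, 20, 40, 60 and 120 min. Duration scored as hypoglycemic period until group mean glucose exceeded the NaCl control twice.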

Normal Kunming (KM) mice [2] = assay: single oral glucose tolerance test (sOGTT); type: in vivo; conditions: for glucose peak in single OGTT: after a single administration and oral glucose, tail blood at 0-120 min
From the text: • 1. Methods: Normal Kunming (KM) mice (purchased from Guangdong Animal Center) were used for oral glucose tolerance test (OGTT) to obtain the hypoglycemic activity and durability of drug. […] The blood glucose meter and blood glucose test paper were from Bayer […]. The average blood glucose of each group was used as an evaluation standard: When the average blood glucose of experimental group was higher than that of the NaCl control group for two times, the measurement stopped and the hypoglycemic period compared to the blank control group was the effective duration. • 2. Results • 2.1 single OGTTs: after a single administration, the mice were orally administered glucose once and measured the blood glucose from the tail blood at 0, 10, 20, 40, 60 and 120 min. […] The duration of each monomer group was about 1⁄2-1⁄4 of the duration of its corresponding dimer group. […] Therefore, the 2G3 peptide was selected for treating type II diabetes (T2D) in vivo and subsequent experiments.

[3] = trial for 26 weeks; cited from earlier work
[4] = speculated; cited from earlier work
[5] = in vivo; cited from earlier work
[6] = cited from earlier work
thyroid C-cell = conditions: rodents, dose-dependent and time-dependent; cited from earlier work
GLP-1R = GLP-1R Western blot analysis in T2D model; type: in vivo, C57B16/J mice; conditions: compared with the model control group
[7] = clinic trial for 24 weeks, once a day; cited from earlier work
[8] = T2D model treatment: body weight and organ weights; type: in vivo, C57B16/J mice; conditions: 2G1 study, 35 days
Procedure: C57B16/J mice were placed in an SPF-level environment with a standard diet. All experimental operations were performed in accordance with the guidelines of the ethics and uses of experimental animals. […] The NaCl-PB group served as blank control and the model control group served as the T2D model control. They were injected with NaCl-PB solution. The T2D model group was fed with 60 kcal % high-fat diet (D12492, Changzhou SYSE Bio-tech. Co., Ltd., China) until the end of the experiment. Meanwhile the blank control group maintained standard diet. […] These groups were subjected to a 35-day treatment study on the basis of the high-fat diet. • 1. […] The monomeric peptides were dissolved into a saline solution (pH 6.5) for injection. • 2. […] The models were measured blood glucose at the tail and weight weighted every morning at 9 am. […] In the T2D treatment study, all T2D model mice were injected subcutaneously at the back hip in 100 μl per mouse within 30 min. The blood glucose of the experimental mice was measured every five days and the whole measurement was completed within 40 min. […] No. 8-9695-03-201-1, Novo Nordisk company, Switzerland) until the end of the 35-day experiment. • 3.

[9] = high dose 3.378 nmol/100 μL once a day
[10] = low dose 0.375 nmol/100 μL once a day
[11] = medium dose and Liraglutide group 1.126 nmol/100 μL once a day

His-Ala-Glu-Gly-Thr-Phe-Thr-Ser-Asp-Val-Ser-Cys-Tyr-Leu-Glu-Gly-Gln-Ala-Ala-Lys[N-ϵ-(N-α-Palmitoyl-L-γ-glutamyl)]-Glu-Phe-Ile-Ala-Trp-Leu-Val-Arg-Gly-Arg-Gly-OH (HAEGTFTSDVSCYLEGQAAXEFIAWLVRGRG; palmitoyl-γ-glutamyl on Lys; C-terminal acid; Sequence is synthesized; (20)..(20) Xaa is 26Lys[N-e-(N-a-palmitoyl-L-g-glutamyl)]; (31)..(31) C-terminal) [G3 series 20]
Hypoglycemic (day) (Normal Kunming (KM) mice [1]; monomeric peptides): 4 (G3 peptide) day
glucose peak in single OGTT (Normal Kunming (KM) mice [2]): no blood glucose peak appeared

Dulaglutide
body weight reduction [3]: 2.9 kg

His-Ala-Glu-Gly-Thr-Phe-Thr-Ser-Asp-Val-Cys-Ser-Tyr-Leu-Glu-Gly-Gln-Ala-Ala-Lys[N-ϵ-(N-α-Palmitoyl-L-γ-glutamyl)]-Glu-Phe-Ile-Ala-Trp-Leu-Val-Arg-Gly-Arg-Gly-OH (HAEGTFTSDVCSYLEGQAAXEFIAWLVRGRG; palmitoyl-γ-glutamyl on Lys; C-terminal acid; Sequence is synthesized; (20)..(20) Xaa is Xaa is 26Lys[N-e-(N-a-Palmitoyl-g-glutamyl)]; (31)..(31) C-terminal) [G2 series 7]
glucose peak in single OGTT (Normal Kunming (KM) mice [2]): no blood glucose peak appeared

Semaglutide
half-life [4]: 165 to 184 h
hypoglycemic activity reduction compared with Liraglutide [5]: 3 times
injection-site discomfort and erythema ([6]; % of patients): 0.2%
gastrointestinal adverse reactions ([6]; Semaglutide 0.5 mg group): 32.7%
gastrointestinal adverse reactions ([6]; Semaglutide 1 mg group): 36.4%
mean increase in amylase ([6]; human, in vivo): 13%
mean increase in lipase ([6]; human, in vivo): 22%
severe hypoglycemia ([6]; in combination with sulfonylurea, % of patients): 0.8-1.2%
Cholelithiasis ([6]; two values printed 'respectively', groups not named): 1.5% and 0.4%
thyroid C-cell tumor (thyroid C-cell): can cause thyroid C-cell tumor

2G2 series 7: disulfide-linked homodimer of monomer SEQ ID NO: 7 (HAEGTFTSDVCSYLEGQAAXEFIAWLVRGRG; disulfide-linked homodimer; Sequence is synthesized; (20)..(20) Xaa is Xaa is 26Lys[N-e-(N-a-Palmitoyl-g-glutamyl)]; (31)..(31) C-terminal)
Hypoglycemic duration (days) (Normal Kunming (KM) mice [1]): 5 (2G2 peptide) days
hypoglycemic effect in single OGTT (Normal Kunming (KM) mice [2]; with more time, no significant difference): stronger than that of monomeric G2 or G3
GLP-1R expression (Western blot) (GLP-1R): significantly increased GLP-1R

Lixisenatide
incidence of side reaction [7]: 2.5%
symptomatic hypoglycemia rate [7]: 3.4%

Albiglutide
body weight reduction [3]: 0.6 kg

CCCCCCCCCCCCCCCC(=O)N[C@@H](CCC(=O)NCCCC[C@H](NC(=O)[C@H](C)NC(=O)[C@H](C)NC(=O)[C@H](CCC(N)=O)NC(=O)CNC(=O)[C@H](CCC(=O)O)NC(=O)[C@H](CC(C)C)NC(=O)[C@H](Cc1ccc(O)cc1)NC(=O)[C@H](CO)NC(=O)[C@H](CO)NC(=O)[C@@H](NC(=O)[C@H](CC(=O)O)NC(=O)[C@H](CO)NC(=O)[C@@H](NC(=O)[C@H](Cc1ccccc1)NC(=O)[C@@H](NC(=O)CNC(=O)[C@H](CCC(=O)O)NC(=O)[C@H](C)NC(=O)[C@@H](N)Cc1c[nH]cn1)[C@@H](C)O)[C@@H](C)O)C(C)C)C(=O)N[C@@H](CCC(=O)O)C(=O)N[C@@H](Cc1ccccc1)C(=O)N[C@H](C(=O)N[C@@H](C)C(=O)N[C@@H](Cc1c[nH]c2ccccc12)C(=O)N[C@@H](CC(C)C)C(=O)N[C@H](C(=O)N[C@@H](CCCNC(=N)N)C(=O)NCC(=O)N[C@@H](CCCNC(=N)N)C(=O)NCC(=O)N[C@@H](CSSC[C@H](NC(=O)CNC(=O)[C@H](CCCNC(=N)N)NC(=O)CNC(=O)[C@H](CCCNC(=N)N)NC(=O)[C@@H](NC(=O)[C@H](CC(C)C)NC(=O)[C@H](Cc1c[nH]c2ccccc12)NC(=O)[C@H](C)NC(=O)[C@@H](NC(=O)[C@H](Cc1ccccc1)NC(=O)[C@H](CCC(=O)O)NC(=O)[C@H](CCCCNC(=O)CC[C@H](NC(=O)CCCCCCCCCCCCCCC)C(=O)O)NC(=O)[C@H](C)NC(=O)[C@H](C)NC(=O)[C@H](CCC(N)=O)NC(=O)CNC(=O)[C@H](CCC(=O)O)NC(=O)[C@H](CC(C)C)NC(=O)[C@H](Cc1ccc(O)cc1)NC(=O)[C@H](CO)NC(=O)[C@H](CO)NC(=O)[C@@H](NC(=O)[C@H](CC(=O)O)NC(=O)[C@H](CO)NC(=O)[C@@H](NC(=O)[C@H](Cc1ccccc1)NC(=O)[C@@H](NC(=O)CNC(=O)[C@H](CCC(=O)O)NC(=O)[C@H](C)NC(=O)[C@@H](N)Cc1c[nH]cn1)[C@@H](C)O)[C@@H](C)O)C(C)C)[C@@H](C)CC)C(C)C)C(=O)O)C(=O)O)C(C)C)[C@@H](C)CC)C(=O)O [2G1]
Weight of organs, Heart [8, 9]: 0.121 ± 0.011a** g
Weight of organs, Left kidney [8, 9]: 0.166 ± 0.040 g
Weight of organs, Left testis [8, 9]: 0.086 ± 0.017 e* g
Weight of organs, Liver [8, 9]: 1.293 ± 0.273 c* g
Weight of organs, Lung [8, 9]: 0.144 ± 0.019 g
Weight of organs, Pancreas [8, 9]: 0.145 ± 0.032 c* g
Weight of organs, Right kidney [8, 9]: 0.175 ± 0.063 g
Weight of organs, Right testis [8, 9]: 0.096 ± 0.011 g
Weight of organs, Spleen [8, 9]: 0.095 ± 0.028 c* g
Weight of organs, adipose tissue [8, 9]: 1.311 ± 0.629 c* g
Weight of organs, Heart [8, 10]: 0.128 ± 0.023 g
Weight of organs, Left kidney [8, 10]: 0.156 ± 0.021 g
Weight of organs, Left testis [8, 10]: 0.094 ± 0.037 g
Weight of organs, Liver [8, 10]: 1.290 ± 0.163 a*c** g
Weight of organs, Lung [8, 10]: 0.146 ± 0.010 g
Weight of organs, Pancreas [8, 10]: 0.129 ± 0.2a**c*** g
Weight of organs, Right kidney [8, 10]: 0.147 ± 0.018 g
Weight of organs, Right testis [8, 10]: 0.100 ± 0.021 b* g
Weight of organs, Spleen [8, 10]: 0.107 ± 0.037 c* g
Weight of organs, adipose tissue [8, 10]: 1.202 ± 0.406 c** g
Weight of organs, Heart [8, 11]: 0.114 ± 0.010 a** g
Weight of organs, Left kidney [8, 11]: 0.157 ± 0.030 g
Weight of organs, Left testis [8, 11]: 0.100 ± 0.006 b** g
Weight of organs, Liver [8, 11]: 1.211 ± 0.114 c** g
Weight of organs, Lung [8, 11]: 0.139 ± 0.020 g
Weight of organs, Pancreas [8, 11]: 0.155 ± 0.033 c*d* g
Weight of organs, Right kidney [8, 11]: 0.139 ± 0.029 g
Weight of organs, Right testis [8, 11]: 0.095 ± 0.011 g
Weight of organs, Spleen [8, 11]: 0.101 ± 0.026 c* g
Weight of organs, adipose tissue [8, 11]: 1.263 ± 0.276 c*** g

His-Ala-Glu-Gly-Thr-Phe-Thr-Ser-Asp-Val-Cys-Ser-Tyr-Leu-Glu-Gly-Gln-Ala-Ala-Lys[N-ϵ-(N-α-oleoyl-L-γ-glutamyl)]-Glu-Phe-Ile-Ala-Trp-Leu-Val-Arg-Gly-Arg-Gly-OH (HAEGTFTSDVCSYLEGQAAXEFIAWLVRGRG; oleoyl-γ-glutamyl on Lys; C-terminal acid; Sequence is synthesized; (20)..(20) Xaa is 26Lys[N-e-(N-a-oleoyl-L-g-glutamyl)]; (31)..(1) C-terminal) [G2 series 9]
Hypoglycemic (Normal Kunming (KM) mice [1]; monomeric peptides): 3 days
